Measurements taken from patent US6960574B2, “Antagonists of RF-amide neuropeptides” (University of Florida, priority 2002, dated 2005).
Peptide text beside a SMILES is read from it. * marks the point of attachment. Dansyl = CN(C)c1cccc2c(S(=O)(=O)*)cccc12

The compounds below were run on receptor labeled by the radioiodinated analogue of 1 (4, [125I]-YLFQPQRF-NH2); neuropeptide FF receptor (assay: Competitive radioligand binding against 4 ([125I]Y8F-amide)). Settings: mixture-based positional scanning; difference from averaged radioligand displacement of whole library (0); about 80 a.u. = 10-fold change in Ki.

SMILES	Relative Binding Index (RBI)
CN(C)c1cccc2c(S(=O)(=O)N[C@@H](CO)C(=O)N[C@@H](CO)C(=O)N[C@@H](CCCNC(=N)N)C(N)=O)cccc12 [Dansyl-SSR-amide] (Dansyl-Ser-Ser-Arg-NH2)	37 a.u.
C[C@@H](O)[C@H](NC(=O)[C@H](CO)NS(=O)(=O)c1cccc2c(N(C)C)cccc12)C(=O)N[C@@H](CCCNC(=N)N)C(N)=O [Dansyl-STR-amide] (Dansyl-Ser-Thr-Arg-NH2)	22 a.u.
CC(C)[C@H](NC(=O)[C@H](CO)NS(=O)(=O)c1cccc2c(N(C)C)cccc12)C(=O)N[C@@H](CCCNC(=N)N)C(N)=O [Dansyl-SVR-amide] (Dansyl-Ser-Val-Arg-NH2)	12 a.u.
CN(C)c1cccc2c(S(=O)(=O)N[C@@H](CO)C(=O)N[C@@H](Cc3c[nH]c4ccccc34)C(=O)N[C@@H](CCCNC(=N)N)C(N)=O)cccc12 [Dansyl-SWR-amide] (Dansyl-Ser-Trp-Arg-NH2)	25 a.u.
CN(C)c1cccc2c(S(=O)(=O)N[C@@H](CO)C(=O)N[C@@H](Cc3ccc(O)cc3)C(=O)N[C@@H](CCCNC(=N)N)C(N)=O)cccc12 [Dansyl-SYR-amide] (Dansyl-Ser-Tyr-Arg-NH2)	15 a.u.
C[C@H](NC(=O)[C@@H](NS(=O)(=O)c1cccc2c(N(C)C)cccc12)[C@@H](C)O)C(=O)N[C@@H](CCCNC(=N)N)C(N)=O [Dansyl-TAR-amide] (Dansyl-Thr-Ala-Arg-NH2)	−58 a.u.
C[C@@H](O)[C@H](NS(=O)(=O)c1cccc2c(N(C)C)cccc12)C(=O)N[C@@H](CC(=O)O)C(=O)N[C@@H](CCCNC(=N)N)C(N)=O [Dansyl-TDR-amide] (Dansyl-Thr-Asp-Arg-NH2)	−27 a.u.
C[C@@H](O)[C@H](NS(=O)(=O)c1cccc2c(N(C)C)cccc12)C(=O)N[C@@H](CCC(=O)O)C(=O)N[C@@H](CCCNC(=N)N)C(N)=O [Dansyl-TER-amide] (Dansyl-Thr-Glu-Arg-NH2)	−8 a.u.
CC(O)C(NS(=O)(=O)c1cccc2c(N(C)C)cccc12)C(=O)NC(Cc1ccccc1)C(=O)NC(CCCNC(=N)N)C(N)=O (stereo not drawn) [Dansyl-TFR-amide] (Dansyl-Thr-Phe-Arg-NH2; configuration not given here)	−10 a.u.
C[C@@H](O)[C@H](NS(=O)(=O)c1cccc2c(N(C)C)cccc12)C(=O)NCC(=O)N[C@@H](CCCNC(=N)N)C(N)=O [Dansyl-TGR-amide] (Dansyl-Thr-Gly-Arg-NH2)	−3 a.u.
C[C@@H](O)[C@H](NS(=O)(=O)c1cccc2c(N(C)C)cccc12)C(=O)N[C@@H](Cc1c[nH]cn1)C(=O)N[C@@H](CCCNC(=N)N)C(N)=O [Dansyl-THR-amide] (Dansyl-Thr-His-Arg-NH2)	−14 a.u.
CC[C@H](C)[C@H](NC(=O)[C@@H](NS(=O)(=O)c1cccc2c(N(C)C)cccc12)[C@@H](C)O)C(=O)N[C@@H](CCCNC(=N)N)C(N)=O [Dansyl-TIR-amide] (Dansyl-Thr-Ile-Arg-NH2)	−2 a.u.
C[C@@H](O)[C@H](NS(=O)(=O)c1cccc2c(N(C)C)cccc12)C(=O)N[C@@H](CCCCN)C(=O)N[C@@H](CCCNC(=N)N)C(N)=O [Dansyl-TKR-amide] (Dansyl-Thr-Lys-Arg-NH2)	−11 a.u.
CC(C)C[C@H](NC(=O)[C@@H](NS(=O)(=O)c1cccc2c(N(C)C)cccc12)[C@@H](C)O)C(=O)N[C@@H](CCCNC(=N)N)C(N)=O [Dansyl-TLR-amide] (Dansyl-Thr-Leu-Arg-NH2)	−17 a.u.
CSCC[C@H](NC(=O)[C@@H](NS(=O)(=O)c1cccc2c(N(C)C)cccc12)[C@@H](C)O)C(=O)N[C@@H](CCCNC(=N)N)C(N)=O [Dansyl-TMR-amide] (Dansyl-Thr-Met-Arg-NH2)	−9 a.u.
C[C@@H](O)[C@H](NS(=O)(=O)c1cccc2c(N(C)C)cccc12)C(=O)N[C@@H](CC(N)=O)C(=O)N[C@@H](CCCNC(=N)N)C(N)=O [Dansyl-TNR-amide] (Dansyl-Thr-Asn-Arg-NH2)	−7 a.u.
C[C@@H](O)[C@H](NS(=O)(=O)c1cccc2c(N(C)C)cccc12)C(=O)N1CCC[C@H]1C(=O)N[C@@H](CCCNC(=N)N)C(N)=O [Dansyl-TPR-amide] (Dansyl-Thr-Pro-Arg-NH2)	−5 a.u.
C[C@@H](O)[C@H](NS(=O)(=O)c1cccc2c(N(C)C)cccc12)C(=O)N[C@@H](CCC(N)=O)C(=O)N[C@@H](CCCNC(=N)N)C(N)=O [Dansyl-TQR-amide] (Dansyl-Thr-Gln-Arg-NH2)	5 a.u.
C[C@@H](O)[C@H](NS(=O)(=O)c1cccc2c(N(C)C)cccc12)C(=O)N[C@@H](CCCNC(=N)N)C(=O)N[C@@H](CCCNC(=N)N)C(N)=O [Dansyl-TRR-amide] (Dansyl-Thr-Arg-Arg-NH2)	−10 a.u.
C[C@@H](O)[C@H](NS(=O)(=O)c1cccc2c(N(C)C)cccc12)C(=O)N[C@@H](CO)C(=O)N[C@@H](CCCNC(=N)N)C(N)=O [Dansyl-TSR-amide] (Dansyl-Thr-Ser-Arg-NH2)	12 a.u.

SMILES	Relative Binding Index (RBI)
C[C@@H](O)[C@H](NC(=O)[C@@H](NS(=O)(=O)c1cccc2c(N(C)C)cccc12)[C@@H](C)O)C(=O)N[C@@H](CCCNC(=N)N)C(N)=O [Dansyl-TTR-amide] (Dansyl-Thr-Thr-Arg-NH2)	−3 a.u.
CC(C)[C@H](NC(=O)[C@@H](NS(=O)(=O)c1cccc2c(N(C)C)cccc12)[C@@H](C)O)C(=O)N[C@@H](CCCNC(=N)N)C(N)=O [Dansyl-TVR-amide] (Dansyl-Thr-Val-Arg-NH2)	−13 a.u.
C[C@@H](O)[C@H](NS(=O)(=O)c1cccc2c(N(C)C)cccc12)C(=O)N[C@@H](Cc1c[nH]c2ccccc12)C(=O)N[C@@H](CCCNC(=N)N)C(N)=O [Dansyl-TWR-amide] (Dansyl-Thr-Trp-Arg-NH2)	0 a.u.
C[C@@H](O)[C@H](NS(=O)(=O)c1cccc2c(N(C)C)cccc12)C(=O)N[C@@H](Cc1ccc(O)cc1)C(=O)N[C@@H](CCCNC(=N)N)C(N)=O [Dansyl-TYR-amide] (Dansyl-Thr-Tyr-Arg-NH2)	−10 a.u.
CC(C)[C@H](NS(=O)(=O)c1cccc2c(N(C)C)cccc12)C(=O)N[C@@H](C)C(=O)N[C@@H](CCCNC(=N)N)C(N)=O [Dansyl-VAR-amide] (Dansyl-Val-Ala-Arg-NH2)	−53 a.u.
CC(C)[C@H](NS(=O)(=O)c1cccc2c(N(C)C)cccc12)C(=O)N[C@@H](CC(=O)O)C(=O)N[C@@H](CCCNC(=N)N)C(N)=O [Dansyl-VDR-amide] (Dansyl-Val-Asp-Arg-NH2)	−22 a.u.
CC(C)[C@H](NS(=O)(=O)c1cccc2c(N(C)C)cccc12)C(=O)N[C@@H](CCC(=O)O)C(=O)N[C@@H](CCCNC(=N)N)C(N)=O [Dansyl-VER-amide] (Dansyl-Val-Glu-Arg-NH2)	−4 a.u.
CC(C)[C@H](NS(=O)(=O)c1cccc2c(N(C)C)cccc12)C(=O)N[C@@H](Cc1ccccc1)C(=O)N[C@@H](CCCNC(=N)N)C(N)=O [Dansyl-VFR-amide] (Dansyl-Val-Phe-Arg-NH2)	−6 a.u.
CC(C)[C@H](NS(=O)(=O)c1cccc2c(N(C)C)cccc12)C(=O)NCC(=O)N[C@@H](CCCNC(=N)N)C(N)=O [Dansyl-VGR-amide] (Dansyl-Val-Gly-Arg-NH2)	1 a.u.
CC(C)[C@H](NS(=O)(=O)c1cccc2c(N(C)C)cccc12)C(=O)N[C@@H](Cc1cnc[nH]1)C(=O)N[C@@H](CCCNC(=N)N)C(N)=O [Dansyl-VHR-amide] (Dansyl-Val-His-Arg-NH2)	−10 a.u.
CC[C@H](C)[C@H](NC(=O)[C@@H](NS(=O)(=O)c1cccc2c(N(C)C)cccc12)C(C)C)C(=O)N[C@@H](CCCNC(=N)N)C(N)=O [Dansyl-VIR-amide] (Dansyl-Val-Ile-Arg-NH2)	2 a.u.
CC(C)[C@H](NS(=O)(=O)c1cccc2c(N(C)C)cccc12)C(=O)N[C@@H](CCCCN)C(=O)N[C@@H](CCCNC(=N)N)C(N)=O [Dansyl-VKR-amide] (Dansyl-Val-Lys-Arg-NH2)	−7 a.u.
CC(C)C[C@H](NC(=O)[C@@H](NS(=O)(=O)c1cccc2c(N(C)C)cccc12)C(C)C)C(=O)N[C@@H](CCCNC(=N)N)C(N)=O [Dansyl-VLR-amide] (Dansyl-Val-Leu-Arg-NH2)	−13 a.u.
CSCC[C@H](NC(=O)[C@@H](NS(=O)(=O)c1cccc2c(N(C)C)cccc12)C(C)C)C(=O)N[C@@H](CCCNC(=N)N)C(N)=O [Dansyl-VMR-amide] (Dansyl-Val-Met-Arg-NH2)	−4 a.u.
CC(C)[C@H](NS(=O)(=O)c1cccc2c(N(C)C)cccc12)C(=O)N[C@@H](CC(N)=O)C(=O)N[C@@H](CCCNC(=N)N)C(N)=O [Dansyl-VNR-amide] (Dansyl-Val-Asn-Arg-NH2)	−3 a.u.
CC(C)[C@H](NS(=O)(=O)c1cccc2c(N(C)C)cccc12)C(=O)N1CCC[C@H]1C(=O)N[C@@H](CCCNC(=N)N)C(N)=O [Dansyl-VPR-amide] (Dansyl-Val-Pro-Arg-NH2)	−1 a.u.
CC(C)[C@H](NS(=O)(=O)c1cccc2c(N(C)C)cccc12)C(=O)N[C@@H](CCC(N)=O)C(=O)N[C@@H](CCCNC(=N)N)C(N)=O [Dansyl-VQR-amide] (Dansyl-Val-Gln-Arg-NH2)	9 a.u.
CC(C)[C@H](NS(=O)(=O)c1cccc2c(N(C)C)cccc12)C(=O)N[C@@H](CCCNC(=N)N)C(=O)N[C@@H](CCCNC(=N)N)C(N)=O [Dansyl-VRR-amide] (Dansyl-Val-Arg-Arg-NH2)	−6 a.u.
CC(C)[C@H](NS(=O)(=O)c1cccc2c(N(C)C)cccc12)C(=O)N[C@@H](CO)C(=O)N[C@@H](CCCNC(=N)N)C(N)=O [Dansyl-VSR-amide]	16 a.u.
CC(C)[C@H](NS(=O)(=O)c1cccc2c(N(C)C)cccc12)C(=O)N[C@H](C(=O)N[C@@H](CCCNC(=N)N)C(N)=O)[C@@H](C)O [Dansyl-VTR-amide] (Dansyl-Val-Thr-Arg-NH2)	1 a.u.
